“And” between values parts separate entries of the source, which are not always exact repeats. Identical values can stand only once. Toxic doses and inconclusive results are not listed.
System: CD2F1 mice, L1210 leukemia ip, survival T/C
Assay: NCI In Vivo Anticancer Drug Screen. Data for tumor model L1210 Leukemia (intraperitoneal) in CD2F1 (CDF1) mice
Conditions: higher = longer survival
Outline: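 Antitumor effect is scored in animals hosting a serially transplanted tumor. Values compare compound-dosed animals against vehicle-only controls as a simple quotient.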

[1] = endpoint: mean survival time, dose: 100.0 mg/kg/injection, schedule: Q01DX009 (ip), vehicle: saline with Tween-80
[2] = endpoint: mean survival time, dose: 100.0 mg/kg/injection, schedule: Q04DX003 (ip), vehicle: saline
[3] = endpoint: mean survival time, dose: 200.0 mg/kg/injection, schedule: Q01DX009 (ip), vehicle: saline with Tween-80
[4] = endpoint: mean survival time, dose: 200.0 mg/kg/injection, schedule: Q04DX003 (ip), vehicle: saline
[5] = endpoint: mean survival time, dose: 400.0 mg/kg/injection, schedule: Q01DX009 (ip), vehicle: saline with Tween-80
[6] = endpoint: mean survival time, dose: 400.0 mg/kg/injection, schedule: Q04DX003 (ip), vehicle: saline
[7] = endpoint: mean survival time, dose: 25.0 mg/kg/injection, schedule: Q01DX009 (ip), vehicle: saline with Tween-80
[8] = endpoint: mean survival time, dose: 50.0 mg/kg/injection, schedule: Q01DX009 (ip), vehicle: saline with Tween-80
[9] = endpoint: mean survival time, dose: 100.0 mg/kg/injection, schedule: Q04DX003 (ip), vehicle: saline with Tween-80
[10] = endpoint: mean survival time, dose: 200.0 mg/kg/injection, schedule: Q04DX003 (ip), vehicle: saline with Tween-80
[11] = endpoint: mean survival time, dose: 400.0 mg/kg/injection, schedule: Q04DX003 (ip), vehicle: saline with Tween-80
[12] = endpoint: mean survival time, dose: 25.0 mg/kg/injection, schedule: Q04DX003 (ip), vehicle: saline with Tween-80
[13] = endpoint: mean survival time, dose: 50.0 mg/kg/injection, schedule: Q04DX003 (ip), vehicle: saline with Tween-80
[14] = endpoint: mean survival time, dose: 100.0 mg/kg/injection, schedule: Q04DX002 (ip), vehicle: saline with Tween-80
[15] = endpoint: mean survival time, dose: 25.0 mg/kg/injection, schedule: Q04DX002 (ip), vehicle: saline with Tween-80
[16] = endpoint: mean survival time, dose: 50.0 mg/kg/injection, schedule: Q04DX002 (ip), vehicle: saline with Tween-80

In the case of `O=C(Nc1ccc(S(=O)(=O)F)c(Cl)c1)Oc1ccccc1`, the T/C [1] is reported as 101 % of control, the T/C [2] is reported as 95 % of control and the T/C [3] is reported as 100 % of control. The T/C [4] was 95 % of control, the T/C [5] was 97 % of control and the T/C [6] was 101 % of control.
`Nc1ccn(C2CC3[O][Sn]([c]4ccccc4)([c]4ccccc4)[O]CC3O2)c(=O)n1` (stereo not drawn) was tested, and the T/C (endpoint: mean survival time, dose: 6.25 mg/kg/injection, schedule: Q01DX005 (ip), vehicle: distilled water + Tween-80) was 103 % of control, the T/C (endpoint: mean survival time, dose: 12.5 mg/kg/injection, schedule: Q01DX005 (ip), vehicle: distilled water + Tween-80) was 93 % of control and the T/C (endpoint: mean survival time, dose: 25.0 mg/kg/injection, schedule: Q01DX005 (ip), vehicle: distilled water + Tween-80) was 93 % of control. The T/C (endpoint: mean survival time, dose: 50.0 mg/kg/injection, schedule: Q01DX005 (ip), vehicle: distilled water + Tween-80) was 88 % of control.
With `Cc1ccc(Cl)cc1NC(=O)CCl` the T/C [7] was 94 % of control, the T/C [8] was 94 % of control and the T/C [1] was 89 % of control and 96 % of control. The T/C [9] was 101 % of control, the T/C [10] was 95 % of control and the T/C [11] was 97 % of control.
`COc1ccc2c(c1OC)CC1N(S(=O)(=O)c3ccc(C)cc3)CCC13c1ccccc1N(C(C)=O)C23` (stereo not drawn) was tested, and the T/C (endpoint: mean survival time, dose: 75.0 mg/kg/injection, schedule: Q01DX001 (ip), vehicle: other) was 95 % of control, the T/C (endpoint: mean survival time, dose: 150.0 mg/kg/injection, schedule: Q01DX001 (ip), vehicle: other) was 89 % of control and 95 % of control and the T/C (endpoint: mean survival time, dose: 300.0 mg/kg/injection, schedule: Q01DX001 (ip), vehicle: other) was 97 % of control and 100 % of control.
For `CC1CCCCC1NC(=O)Nc1ccccc1` (stereo not drawn), the T/C [9] was 94 % of control and the T/C [10] was 92 % of control.
For `CCCCCCCCC(=O)CC`, the T/C [2] was 98 % of control, the T/C [4] was 98 % of control and the T/C [6] was 93 % of control.
With `COC(=O)/C(=C1/OC(=O)C(c2ccccc2)=C1O)c1ccccc1` the T/C [12] was 91 % of control, the T/C [13] was 100 % of control and the T/C [9] was 105 % of control.
In the case of `O=C1c2ccccc2S(=O)(=O)N1CCBr`, the T/C [1] is reported as 97 % of control, the T/C [9] is reported as 106 % of control and the T/C [3] is reported as 100 % of control. For the same compound, the T/C [10] was 106 % of control, the T/C [5] was 102 % of control and the T/C [11] was 110 % of control.
With `Cc1ccccc1Sc1cc2ccccc2c2ccccc12` the T/C [2] was 97 % of control, the T/C [4] was 100 % of control and the T/C [6] was 100 % of control.
With `CCc1ccc(C(=O)O)cc1S(=O)(=O)Cl` the T/C (endpoint: mean survival time, dose: 12.5 mg/kg/injection, schedule: Q01DX009 (ip), vehicle: saline with Tween-80) was 101 % of control, the T/C (endpoint: mean survival time, dose: 12.5 mg/kg/injection, schedule: Q04DX003 (ip), vehicle: saline with Tween-80) was 104 % of control and the T/C [7] was 97 % of control. For the same compound, the T/C [12] was 101 % of control, the T/C [8] was 95 % of control and the T/C [13] was 103 % of control. The T/C [9] was 97 % of control.
In the case of `CO[C@@]12[C@@H]3N[C@@H]3CN1C1=C(C(=O)C(N(C)c3ccc(O)cc3)=C(C)C1=O)[C@@H]2COC(N)=O`, the T/C (endpoint: median survival time, dose: 3.0 mg/kg/injection, schedule: Q01DX001 (ip), vehicle: distilled water + Tween-80) is reported as 100 % of control, the T/C (endpoint: median survival time, dose: 6.0 mg/kg/injection, schedule: Q01DX001 (ip), vehicle: distilled water + Tween-80) is reported as 121 % of control and the T/C (endpoint: median survival time, dose: 12.0 mg/kg/injection, schedule: Q01DX001 (ip), vehicle: distilled water + Tween-80) is reported as 117 % of control and 102 % of control. The T/C (endpoint: median survival time, dose: 24.0 mg/kg/injection, schedule: Q01DX001 (ip), vehicle: distilled water + Tween-80) was 113 % of control.
`CN(CCC#N)c1ccc(C(=C2C=CC(=Nc3ccccc3)c3ccccc32)c2ccc(N(C)CCC#N)cc2)cc1` was tested, and the T/C [14] was 97 % of control and the T/C (endpoint: mean survival time, dose: 200.0 mg/kg/injection, schedule: Q04DX002 (ip), vehicle: saline with Tween-80) was 101 % of control.
`COC(=O)C1(C)CCCC2(C)C1CCC13OCC(CC21)C(=C(C)C)C3OC(C)=O` (stereo not drawn) was tested, and the T/C [9] was 100 % of control, the T/C [10] was 95 % of control and the T/C [11] was 100 % of control.
In the case of `C1=CC2c3ccccc3C1C1C=CC21` (stereo not drawn), the T/C [1] is reported as 95 % of control, the T/C [9] is reported as 91 % of control and the T/C [3] is reported as 108 % of control. For the same compound, the T/C [10] was 93 % of control, the T/C [5] was 93 % of control and the T/C [11] was 93 % of control.
`CC1(C)NC(=O)NC1=O` was tested, and the T/C (endpoint: mean survival time, dose: 100.0 mg/kg/injection, schedule: Q01DX001 (ip), vehicle: saline) was 98 % of control, the T/C (endpoint: mean survival time, dose: 200.0 mg/kg/injection, schedule: Q01DX001 (ip), vehicle: saline) was 107 % of control and the T/C (endpoint: mean survival time, dose: 400.0 mg/kg/injection, schedule: Q01DX001 (ip), vehicle: saline) was 107 % of control.
In the case of `C(=N\Nc1nc2ccccc2s1)/c1cccnc1`, the T/C (endpoint: mean survival time, dose: 100.0 mg/kg/injection, schedule: Q04DX003 (ip), vehicle: Klucel (hydroxypropylcellulose) (HPC)) is reported as 97 % of control, the T/C (endpoint: mean survival time, dose: 200.0 mg/kg/injection, schedule: Q04DX003 (ip), vehicle: Klucel (hydroxypropylcellulose) (HPC)) is reported as 94 % of control and the T/C (endpoint: mean survival time, dose: 400.0 mg/kg/injection, schedule: Q04DX003 (ip), vehicle: Klucel (hydroxypropylcellulose) (HPC)) is reported as 100 % of control.
`CC(C)=CCNc1ncnc2c1ncn2C1OC(COP(=O)(O)O)C(O)C1O` (stereo not drawn) was tested, and the T/C (endpoint: mean survival time, dose: 25.0 mg/kg/injection, schedule: Q01DX005 (ip), vehicle: water) was 103 % of control, the T/C (endpoint: mean survival time, dose: 50.0 mg/kg/injection, schedule: Q01DX005 (ip), vehicle: water) was 104 % of control and the T/C (endpoint: mean survival time, dose: 100.0 mg/kg/injection, schedule: Q01DX005 (ip), vehicle: water) was 103 % of control. For the same compound, the T/C (endpoint: mean survival time, dose: 200.0 mg/kg/injection, schedule: Q01DX005 (ip), vehicle: water) was 114 % of control.
In the case of `CCCCCC(C)(C)N=[P+]([O-])NC(C)(C)CCCCC` (stereo not drawn), the T/C [15] is reported as 95 % of control, the T/C [16] is reported as 102 % of control and the T/C [14] is reported as 95 % of control and 98 % of control.
In the case of `O=c1[nH]cc(Cl)cc1Cl`, the T/C (endpoint: mean survival time, dose: 100.0 mg/kg/injection, schedule: Q04DX003 (ip), vehicle: other) is reported as 91 % of control, the T/C (endpoint: mean survival time, dose: 200.0 mg/kg/injection, schedule: Q04DX003 (ip), vehicle: other) is reported as 103 % of control and the T/C (endpoint: mean survival time, dose: 400.0 mg/kg/injection, schedule: Q04DX003 (ip), vehicle: other) is reported as 105 % of control.
`CCN(Cc1cnc2nc(N)nc(N)c2n1)c1ccc(C(=O)NC(CCC(=O)O)C(=O)O)cc1` (stereo not drawn) was tested, and the T/C (endpoint: mean survival time, dose: 2.5 mg/kg/injection, schedule: Q01DX009 (ip), vehicle: sodium bicarbonate) was 172 % of control, the T/C (endpoint: mean survival time, dose: 5.0 mg/kg/injection, schedule: Q01DX009 (ip), vehicle: sodium bicarbonate) was 174 % of control and the T/C (endpoint: mean survival time, dose: 6.25 mg/kg/injection, schedule: Q01DX009 (ip), vehicle: sodium bicarbonate) was 89 % of control. For the same compound, the T/C (endpoint: mean survival time, dose: 10.0 mg/kg/injection, schedule: Q01DX009 (ip), vehicle: sodium bicarbonate) was 217 % of control and the T/C (endpoint: mean survival time, dose: 12.5 mg/kg/injection, schedule: Q01DX009 (ip), vehicle: sodium bicarbonate) was 92 % of control.
`CNP1(=O)OC(c2ccccc2)=CCN1CCCl` (stereo not drawn) was tested, and the T/C (endpoint: median survival time, dose: 31.25 mg/kg/injection, schedule: Q01DX001 (ip), vehicle: distilled water + Tween-80) was 102 % of control, the T/C (endpoint: median survival time, dose: 62.5 mg/kg/injection, schedule: Q01DX001 (ip), vehicle: distilled water + Tween-80) was 106 % of control and the T/C (endpoint: median survival time, dose: 125.0 mg/kg/injection, schedule: Q01DX001 (ip), vehicle: distilled water + Tween-80) was 96 % of control. For the same compound, the T/C (endpoint: median survival time, dose: 250.0 mg/kg/injection, schedule: Q01DX001 (ip), vehicle: distilled water + Tween-80) was 96 % of control.
In the case of `NC(=O)c1ncc(-c2ccc(Cl)cc2)[nH]c1=O`, the T/C (endpoint: mean survival time, dose: 100.0 mg/kg/injection, schedule: Q04DX003 (ip), vehicle: saline sonified) is reported as 94 % of control, the T/C (endpoint: mean survival time, dose: 200.0 mg/kg/injection, schedule: Q04DX003 (ip), vehicle: saline sonified) is reported as 93 % of control and the T/C (endpoint: mean survival time, dose: 400.0 mg/kg/injection, schedule: Q04DX003 (ip), vehicle: saline sonified) is reported as 96 % of control.
In the case of `Nc1nc(SCc2ccc([N+](=O)[O-])cc2)c2[nH]cnc2n1`, the T/C [1] is reported as 94 % of control, the T/C [9] is reported as 97 % of control and the T/C [3] is reported as 101 % of control. The T/C [10] was 97 % of control, the T/C [5] was 95 % of control and the T/C [11] was 96 % of control.
With `N#CC(C#N)CN(C1=NCCO1)c1cccc2c1CCCC2` the T/C [15] was 94 % of control, the T/C [16] was 94 % of control and the T/C [14] was 98 % of control. For the same compound, the T/C [9] was 89 % of control and the T/C [11] was 89 % of control.
For `CCOC(=O)NOP(=O)(N1CC1)N1CC1`, the T/C (endpoint: mean survival time, dose: 12.5 mg/kg/injection, schedule: Q04DX002 (ip), vehicle: saline with Tween-80) was 116 % of control, the T/C [16] was 166 % of control and the T/C [14] was 186 % of control.
For `Cc1ccc(NC(=O)OCCOc2ccc(Cl)cc2)cc1[N+](=O)[O-]`, the T/C [8] was 96 % of control, the T/C [1] was 88 % of control and the T/C [3] was 88 % of control.

Reference: PubChem BioAssay AID256 (DTP/NCI, 2004)
